The supplement of paper PMC10733146

How the values were obtained:
Test in all cases: viability relative to DMSO control (fraction); higher = less drug effect (more viable cells)
Settings in all cases: 48 h
Quizartinib = compound: CC(C)(C)c1cc(NC(=O)Nc2ccc(-c3cn4c(n3)sc3cc(OCCN5CCOCC5)ccc34)cc2)no1 [Quizartinib]
Procedure, shortened: (§1)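 Using 384-well plates with compounds already plated at five concentrations, one well per concentration, 4 × 10^4 primary mononuclear tumour cells were added per well. Cells were Ficoll-isolated from blood or bone marrow or came from processed lymph node, fresh or cryopreserved. They were kept for 48 h at 37 °C and 5% CO2 in RPMI-1640 supplemented with penicillin/streptomycin, L-glutamine and human serum, and viability was read as CellTiter-Glo luminescence relative to the median of 16 inner DMSO wells.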

Cladribine = compound: Nc1nc(Cl)nc2c1ncn2[C@H]1C[C@H](O)[C@@H](CO)O1 [Cladribine]
Procedure, shortened: as §1

BI6727 = compound: CC[C@@H]1C(=O)N(C)c2cnc(Nc3ccc(C(=O)N[C@H]4CC[C@H](N5CCN(CC6CC6)CC5)CC4)cc3OC)nc2N1C(C)C [BI6727]
Procedure, shortened: as §1

EPZ-5676 = compound: CC(C)N(C[C@H]1O[C@@H](n2cnc3c(N)ncnc32)[C@H](O)[C@@H]1O)[C@H]1C[C@@H](CCc2nc3cc(C(C)(C)C)ccc3[nH]2)C1 [EPZ-5676]
Procedure, shortened: as §1

Tozasertib = compound: Cc1cc(Nc2cc(N3CCN(C)CC3)nc(Sc3ccc(NC(=O)C4CC4)cc3)n2)n[nH]1 [Tozasertib]
Procedure, shortened: as §1

Carfilzomib = compound: CC(C)C[C@H](NC(=O)[C@H](CCc1ccccc1)NC(=O)CN1CCOCC1)C(=O)N[C@@H](Cc1ccccc1)C(=O)N[C@@H](CC(C)C)C(=O)[C@@]1(C)CO1 [Carfilzomib]
Procedure, shortened: as §1

8-Azaguanin = compound: Nc1nc2n[nH]nc2c(=O)[nH]1 [8-Azaguanin]
Procedure, shortened: as §1

Obatoclax mesylate = compound: COC1=CC(c2cc3ccccc3[nH]2)=N/C1=C\c1[nH]c(C)cc1C [Obatoclax mesylate]
Procedure, shortened: as §1

Pentostatin = compound: OC[C@H]1O[C@@H](n2cnc3c2N=CNC[C@H]3O)C[C@@H]1O [Pentostatin]
Procedure, shortened: as §1

AG-221 (Enasidinib) = compound: CC(C)(O)CNc1nc(Nc2ccnc(C(F)(F)F)c2)nc(-c2cccc(C(F)(F)F)n2)n1 [AG-221 (Enasidinib)]
Procedure, shortened: as §1

ONO-4059 = compound: CC#CC(=O)N1CC[C@@H](n2c(=O)n(-c3ccc(Oc4ccccc4)cc3)c3c(N)ncnc32)C1 [ONO-4059]
Procedure, shortened: as §1

TMP269 = compound: O=C(NCC1(c2nc(-c3ccccc3)cs2)CCOCC1)c1cccc(-c2noc(C(F)(F)F)n2)c1 [TMP269]
Procedure, shortened: as §1

MLN-120B = compound: COc1c(Cl)cc2c([nH]c3cnccc32)c1NC(=O)c1cccnc1C [MLN-120B]
Procedure, shortened: as §1

Vincristine = compound: CC[C@]1(O)C[C@H]2CN(CCc3c([nH]c4ccccc34)[C@@](C(=O)OC)(c3cc4c(cc3OC)N(C=O)[C@H]3[C@@](O)(C(=O)OC)[C@H](OC(C)=O)[C@]5(CC)C=CCN6CC[C@]43[C@@H]65)C2)C1 [Vincristine]
Procedure, shortened: as §1

For primary BL patient cells (S005), the viability (Quizartinib; 0.016 µM) was 1.01, the viability (Quizartinib; 0.08 µM) was 1.1 and the viability (Quizartinib; 0.4 µM) was 1.07. The viability (Quizartinib; 2 µM) was 1.11, the viability (Quizartinib; 10 µM) was 0.966 and the viability (Cladribine; 0.024 µM) was 0.965. For the same test system, the viability (Cladribine; 0.12 µM) was 1.08, the viability (Cladribine; 0.6 µM) was 0.933 and the viability (Cladribine; 3 µM) was 0.912. The viability (Cladribine; 15 µM) was 0.83, the viability (BI6727; 0.024 µM) was 0.931 and the viability (BI6727; 0.12 µM) was 0.881. For the same test system, the viability (BI6727; 0.6 µM) was 0.9, the viability (BI6727; 3 µM) was 0.725 and the viability (BI6727; 15 µM) was 0.483. The viability (EPZ-5676; 0.0032 µM) was 1.54, the viability (EPZ-5676; 0.016 µM) was 1.13 and the viability (EPZ-5676; 0.08 µM) was 1.46. For the same test system, the viability (EPZ-5676; 0.4 µM) was 1.35, the viability (EPZ-5676; 2 µM) was 1 and the viability (Tozasertib; 0.024 µM) was 0.826. It also gave a viability (Tozasertib; 0.12 µM) of 1.33, a viability (Tozasertib; 0.6 µM) of 0.802 and a viability (Tozasertib; 3 µM) of 1.17. It also gave a viability (Tozasertib; 15 µM) of 0.568, a viability (Carfilzomib; 0.00016 µM) of 1.54 and a viability (Carfilzomib; 0.0008 µM) of 0.957. The viability (Carfilzomib; 0.004 µM) was 1, the viability (Carfilzomib; 0.02 µM) was 0.357 and the viability (Carfilzomib; 0.1 µM) was 0.284. For the same test system, the viability (8-Azaguanin; 0.032 µM) was 0.991, the viability (8-Azaguanin; 0.16 µM) was 1.05 and the viability (8-Azaguanin; 0.8 µM) was 0.978. The viability (8-Azaguanin; 4 µM) was 0.812, the viability (8-Azaguanin; 20 µM) was 0.658 and the viability (Obatoclax mesylate; 0.024 µM) was 0.895. For the same test system, the viability (Obatoclax mesylate; 0.12 µM) was 0.821, the viability (Obatoclax mesylate; 0.6 µM) was 0.589 and the viability (Obatoclax mesylate; 3 µM) was 0.465. For the same test system, the viability (Obatoclax mesylate; 15 µM) was 0.209, the viability (Pentostatin; 0.03 µM) was 0.881 and the viability (Pentostatin; 0.15 µM) was 0.79. It also gave a viability (Pentostatin; 0.75 µM) of 1, a viability (Pentostatin; 3.75 µM) of 0.914 and a viability (Pentostatin; 18.76 µM) of 0.909. It also gave a viability (AG-221 (Enasidinib); 0.024 µM) of 0.867, a viability (AG-221 (Enasidinib); 0.12 µM) of 1.43 and a viability (AG-221 (Enasidinib); 0.6 µM) of 0.806. It also gave a viability (AG-221 (Enasidinib); 3 µM) of 1.26, a viability (AG-221 (Enasidinib); 15 µM) of 1.35 and a viability (ONO-4059; 0.0016 µM) of 1.07. It also gave a viability (ONO-4059; 0.008 µM) of 1.12, a viability (ONO-4059; 0.04 µM) of 1.06 and a viability (ONO-4059; 0.2 µM) of 1.15. It also gave a viability (ONO-4059; 1 µM) of 1.07, a viability (TMP269; 0.024 µM) of 1.11 and a viability (TMP269; 0.12 µM) of 1.08. The viability (TMP269; 0.6 µM) was 1.12, the viability (TMP269; 3 µM) was 1.08 and the viability (TMP269; 15 µM) was 1. It also gave a viability (MLN-120B; 0.024 µM) of 0.979, a viability (MLN-120B; 0.12 µM) of 1.01 and a viability (MLN-120B; 0.6 µM) of 0.981. It also gave a viability (MLN-120B; 3 µM) of 1.01, a viability (MLN-120B; 15 µM) of 0.861 and a viability (Vincristine; 0.016 µM) of 1.08. The viability (Vincristine; 0.08 µM) was 0.912, the viability (Vincristine; 0.4 µM) was 1.11 and the viability (Vincristine; 2 µM) was 0.811. The viability (Vincristine; 10 µM) was 1.08.
primary AML patient cells (S021) showed a viability (Quizartinib; 0.016 µM) of 1.18, a viability (Quizartinib; 0.08 µM) of 1.09 and a viability (Quizartinib; 0.4 µM) of 1.02. It also gave a viability (Quizartinib; 2 µM) of 0.793, a viability (Quizartinib; 10 µM) of 1.1 and a viability (Cladribine; 0.024 µM) of 0.461. The viability (Cladribine; 0.12 µM) was 0.289, the viability (Cladribine; 0.6 µM) was 0.208 and the viability (Cladribine; 3 µM) was 0.202. It also gave a viability (Cladribine; 15 µM) of 0.179, a viability (BI6727; 0.024 µM) of 0.927 and a viability (BI6727; 0.12 µM) of 0.89. For the same test system, the viability (BI6727; 0.6 µM) was 0.855, the viability (BI6727; 3 µM) was 0.562 and the viability (BI6727; 15 µM) was 0.23. The viability (EPZ-5676; 0.0032 µM) was 0.815, the viability (EPZ-5676; 0.016 µM) was 0.934 and the viability (EPZ-5676; 0.08 µM) was 0.901. The viability (EPZ-5676; 0.4 µM) was 0.821, the viability (EPZ-5676; 2 µM) was 0.853 and the viability (Tozasertib; 0.024 µM) was 0.918. For the same test system, the viability (Tozasertib; 0.12 µM) was 0.914, the viability (Tozasertib; 0.6 µM) was 0.879 and the viability (Tozasertib; 3 µM) was 0.796. It also gave a viability (Tozasertib; 15 µM) of 0.86, a viability (Carfilzomib; 0.00016 µM) of 1.02 and a viability (Carfilzomib; 0.0008 µM) of 0.812. It also gave a viability (Carfilzomib; 0.004 µM) of 0.15, a viability (Carfilzomib; 0.02 µM) of 0.113 and a viability (Carfilzomib; 0.1 µM) of 0.111. It also gave a viability (8-Azaguanin; 0.032 µM) of 1.14, a viability (8-Azaguanin; 0.16 µM) of 0.877 and a viability (8-Azaguanin; 0.8 µM) of 0.897. The viability (8-Azaguanin; 4 µM) was 0.736, the viability (8-Azaguanin; 20 µM) was 0.53 and the viability (Obatoclax mesylate; 0.024 µM) was 1.03. For the same test system, the viability (Obatoclax mesylate; 0.12 µM) was 0.979, the viability (Obatoclax mesylate; 0.6 µM) was 0.852 and the viability (Obatoclax mesylate; 3 µM) was 0.578. It also gave a viability (Obatoclax mesylate; 15 µM) of 0.156, a viability (Pentostatin; 0.03 µM) of 1.01 and a viability (Pentostatin; 0.15 µM) of 1.03. It also gave a viability (Pentostatin; 0.75 µM) of 1.05, a viability (Pentostatin; 3.75 µM) of 0.951 and a viability (Pentostatin; 18.76 µM) of 0.608. The viability (AG-221 (Enasidinib); 0.024 µM) was 0.872, the viability (AG-221 (Enasidinib); 0.12 µM) was 0.856 and the viability (AG-221 (Enasidinib); 0.6 µM) was 0.895. It also gave a viability (AG-221 (Enasidinib); 3 µM) of 0.734, a viability (AG-221 (Enasidinib); 15 µM) of 0.683 and a viability (ONO-4059; 0.0016 µM) of 1.08. For the same test system, the viability (ONO-4059; 0.008 µM) was 0.982, the viability (ONO-4059; 0.04 µM) was 1.14 and the viability (ONO-4059; 0.2 µM) was 1.05. The viability (ONO-4059; 1 µM) was 1.11, the viability (TMP269; 0.024 µM) was 0.983 and the viability (TMP269; 0.12 µM) was 0.926. It also gave a viability (TMP269; 0.6 µM) of 0.93, a viability (TMP269; 3 µM) of 0.874 and a viability (TMP269; 15 µM) of 0.834. The viability (MLN-120B; 0.024 µM) was 0.834, the viability (MLN-120B; 0.12 µM) was 0.83 and the viability (MLN-120B; 0.6 µM) was 0.798. It also gave a viability (MLN-120B; 3 µM) of 0.668, a viability (MLN-120B; 15 µM) of 0.609 and a viability (Vincristine; 0.016 µM) of 1.02. The viability (Vincristine; 0.08 µM) was 0.693, the viability (Vincristine; 0.4 µM) was 0.339 and the viability (Vincristine; 2 µM) was 0.289. For the same test system, the viability (Vincristine; 10 µM) was 0.275.
